# Assay results taken from patent publication US6812250B2, “Carboxamide-substituted phenylurea derivatives, process for their preparation and their use as medicaments” (Aventis Pharma Deutschland GmbH, priority 2001, dated 2004).
# Target: T1, human glycogen phosphorylase a (Homo sapiens, UniProt P06737)
# T1 sequence (P06737 1-847): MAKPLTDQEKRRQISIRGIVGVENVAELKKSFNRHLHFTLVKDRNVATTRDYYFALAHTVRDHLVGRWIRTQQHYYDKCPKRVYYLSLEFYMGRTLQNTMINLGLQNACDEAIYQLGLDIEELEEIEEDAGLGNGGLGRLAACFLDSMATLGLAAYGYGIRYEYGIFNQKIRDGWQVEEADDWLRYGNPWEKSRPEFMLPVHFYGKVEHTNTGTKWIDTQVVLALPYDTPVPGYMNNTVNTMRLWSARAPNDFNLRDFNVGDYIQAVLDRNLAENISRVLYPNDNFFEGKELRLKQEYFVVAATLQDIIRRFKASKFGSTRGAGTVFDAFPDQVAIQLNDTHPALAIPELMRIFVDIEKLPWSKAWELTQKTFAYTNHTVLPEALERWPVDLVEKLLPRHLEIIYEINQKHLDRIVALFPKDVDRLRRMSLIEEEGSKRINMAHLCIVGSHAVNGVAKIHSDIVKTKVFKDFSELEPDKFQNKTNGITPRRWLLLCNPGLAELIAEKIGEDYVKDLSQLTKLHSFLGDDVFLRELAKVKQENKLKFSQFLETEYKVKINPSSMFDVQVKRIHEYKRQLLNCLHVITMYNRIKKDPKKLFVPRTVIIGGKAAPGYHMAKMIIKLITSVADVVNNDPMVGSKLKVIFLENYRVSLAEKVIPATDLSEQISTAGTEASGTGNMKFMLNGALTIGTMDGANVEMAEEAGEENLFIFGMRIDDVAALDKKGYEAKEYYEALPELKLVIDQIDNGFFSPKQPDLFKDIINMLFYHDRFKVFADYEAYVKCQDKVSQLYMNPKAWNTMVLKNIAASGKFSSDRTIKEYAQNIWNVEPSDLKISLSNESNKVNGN
# Assay: Glycogen phosphorylase a activity assay
# Type: biochemical
# Details: 10 μM test substance; GPa activity measured in the reverse direction (glycogen synthesis from glucose 1-phosphate, liberated inorganic phosphate, absorption at 820 nm); in vitro
# Procedure: Glycogen Phosphorylase a Activity Assay
# The effect of compounds on the activity of the active form of glycogen phosphorylase (GPa) was measured in the reverse direction by following the synthesis of glycogen from glucose 1-phosphate by determining the liberation of inorganic phosphate. All the reactions were carried out as duplicate determinations in microtiter plates with 96 wells (Half Area Plates, Costar No 3696), measuring the change in absorption owing to the formation of the reaction product at the wavelength specified hereinafter in a Multiskan Ascent Elisa Reader (Lab Systems, Finland). […] The baseline glycogen phosphorylase a activity in the absence of test substance was determined by adding 10 μl of buffer solution T (0.1% DMSO). The mixture was incubated at room temperature for 40 minutes, and the liberated inorganic phosphate was measured by the general method of Drueckes et al. (Drueckes P, Schinzel R, Palm D, Anal Biochem 1995 Sep. 1;230(1):173-177) with the following modifications: 50 μl of a stop solution of 7.3 mM ammonium molybdate, 10.9 mM zinc acetate, 3.6% ascorbic acid, 0.9% SDS are added to 50 μl of the enzyme mixture. After incubation at 45° C. for 60 minutes, the absorption at 820 nm was measured. […]
structure (smiles),measurement,value
"CCOC(=O)N1CCC(NC(=O)c2ccc(Cl)c(NC(=O)NC(=O)c3ccccc3Cl)c2)CC1 [Example 1, Ethyl 4-{4-chloro-3-[3-(2-chlorobenzoyl)ureido]benzoylamino}piperidine-1-carboxylate]",inhibition at 10 µM,87%
